{"source": "patent US20230234897A1", "about": "“USE OF POLYAMINES, TYRAMINE AND/OR A PLANT EXTRACT CONTAINING SAME TO STABILISE MICROORGANISMS” (AGRO INNOVATION INTERNATIONAL, priority 2020, published 2023)", "test_system": "Azotobacter chroococcum", "test": "Growth of Azotobacter chroococcum with or without osmotic stress (0.3 M NaCl), glycine betaine versus extract", "assay_type": "cell-based", "conditions": "for Bacterial concentration at 72 h / Survival rate relative to the strain under non-stressing conditions without addition of the extract / Survival rate relative to the strain under salt stress conditions, without addition of the extract: extract at 10 g of polyamines/kg of medium, glycine betaine quantity not given", "method": "The effect of each of the extracts prepared according to example 1a), 1b) or 1c) was studied on the growth of various bacterial strains, under conditions with or without thermal stress, osmotic stress or acid/base stress. The extracts obtained in examples 1a), 1b) or 1c) were added to a culture medium in different quantities, in order to obtain the desired quantities of polyamines and/or tyramine.\nThe study was carried out in Spizizen Minimal Medium SMM culture broth ((NH4)2SO4: 2 g/L, K2HPO4: 14 g/L, KH2PO4: 6 g/L, MgSO4: 0.2 g/L, C6H5Na3O7·2H2O: 1 g/L, D-glucose: 5 g/L).\nThe starting inoculate for each strain was calibrated by OD measurement (620 nm) in order to obtain an initial concentration of approximately 10^3-10^4 CFU/mL. The strains were incubated for 24 to 72 h. Counts were performed in TSA agar (Tryptone Soya Agar) at TO and after 24 h, 48 h or 72 h incubation at 30° C. (+/−1° C.), according to the studied strains.\nFor each of the strains, the survival rate in the presence of the extract and/or stress was calculated relative to the bacterial concentration obtained at the end of the kinetics (at T=24 h, 48 h or 72 h) in the control mode containing the strain alone, under non-stressed conditions, without adding the extract. Similarly, the survival rate in the presence or absence of the extract and/or stress was calculated relative to the bacterial concentration obtained at the end of the kinetics in the mode containing the strain alone, under stress conditions, without adding the extract.\nThe strain Azotobacter chroococcum was tested under osmotic stress conditions, in other words by adding 0.3 M NaCl to the culture medium at time T=0.\nThe glycine betaine, known as an osmoprotectant, was tested in comparison with the Ascophyllum nodosum extract prepared according to example 1a).", "key": {"[1]": {"conditions": "non-stressing conditions (no NaCl), 72 h"}}}
{"smiles": "C[N+](C)(C)CC(=O)[O-]", "note": "[glycine betaine]", "values": [{"measurement": "Bacterial concentration at 72 h", "setting": "[1]", "result": "1.1 · 10^8 CFU/mL"}, {"measurement": "Survival rate relative to the strain under non-stressing conditions without addition of the extract", "setting": "[1]", "result": 0.3, "unit": "log"}, {"measurement": "Survival rate relative to the strain under salt stress conditions, without addition of the extract", "setting": "[1]", "result": 5.1, "unit": "log"}, {"measurement": "stabilisation of Azotobacter chroococcum under osmotic stress", "setting": "osmotic stress 0.3 M NaCl", "result": "no stabilisation is observed"}, {"measurement": "loss in the bacterial concentration after 72 h incubation relative to the stress conditions", "setting": "salt stress 0.3 M NaCl, 72 h", "result": 0.8, "unit": "logs"}, {"measurement": "Bacterial concentration at 72 h", "setting": "salt stress 0.3 M NaCl, 72 h", "result": "1.4 · 10^2 CFU/mL"}, {"measurement": "Survival rate relative to the strain under non-stressing conditions without addition of the extract", "setting": "salt stress 0.3 M NaCl, 72 h", "result": "−5.6", "unit": "log"}, {"measurement": "Survival rate relative to the strain under salt stress conditions, without addition of the extract", "setting": "salt stress 0.3 M NaCl, 72 h", "result": "−0.8", "unit": "log"}]}
